Results from patent US20260355171A1, “INHIBITORS AND USES THEREFOR” (priority 2022, published 2026).

Assays:
primary neurons [1] = test: Cytotoxicity / neuronal cell death in the presence of NSP5 (PI/DAPI)
primary neurons [2] = test: Neuronal cell death in the presence of H2O2; assay type: cell-based, mouse; settings: 1 or 10 μM compound, 100 μM H2O2
Protocol: (§1) Primary neurons were treated with 0.4, 1, 2, 10 or 50 μM of compound 2 or compound 22 (prepared according to Example 2). NSP5 was added to primary neurons at DIV11, and compound 2 or 22 was added 48 hours later. Cells were treated with propidium iodide 48 hours after compound addition. Cells were washed with PBS and fixed with 4% PFA. Cells were then washed and stained with DAPI. Images of cells were taken with ZEISS Axioscan 7 microscope slide scanner. Cell death was determined by Image J analysis, counting the death cell (red, PI)) vs all cells (blue, DAPI).
(§2) One hour after compound addition (1 or 10 μM of compound 2 or compound 22) neurons were treated with a cytotoxic agent (100 μM N-methyl-D-aspartate (NMDA), 100 μM H2O2 or 5 μM staurosporine). One hour after treatment with the cytotoxic agent, the media was replaced with fresh media and the neurons were incubated for 24 hours. A final concentration of 1 μM propidium iodide (PI) was added into the well and incubated for 5 mins. Cells were washed with phosphate-buffered saline (PBS) and then fixed with 4% PFA. Cells were then washed and stained with DAPI, and cell death determined as described above.

primary neurons [3] = test: Neuronal cell death in the presence of NMDA; assay type: cell-based, mouse; settings: 1 or 10 μM compound, 100 μM NMDA
Protocol: as §1, §2

[4] = tested on: primary neurons expressing SARS-CoV-2 NSP5 (AAV9-NSP5-V5); test: Effect on neurons in the presence of NSP5 (AAV9-NSP5-V5, immunofluorescence); assay type: cell-based, mouse; settings: 0.4, 2, 10 or 50 μM, two days
primary neurons [5] = test: Neuronal cell death in the presence of staurosporine; assay type: cell-based, mouse; settings: 1 or 10 μM compound, 5 μM staurosporine
Protocol: as §1, §2

primary neurons [6] = test: Effect of compounds on neuronal cell death caused by NSP5 (Example 6); assay type: cell-based, mouse; settings: 10 μM, 48 hours

| Structure (SMILES) | Reduction of neuronal cell death caused by NSP5 (primary neurons [1]; 0.4, 1, 2, 10 or 50 μM, 48 hours) | Cell death caused by compound (primary neurons [1]; therapeutic concentrations (nM to low μM)) | Protection from H2O2-induced neurotoxicity (primary neurons [2]) | Protection from NMDA-induced neurotoxicity (primary neurons [3]) | Prevention of NSP5-induced neuronal death [4] | Protection from staurosporine-induced neurotoxicity (primary neurons [5]) | Reduction of neuronal cell death caused by NSP5 (primary neurons [6]) |
| --- | --- | --- | --- | --- | --- | --- | --- |
| NC(=O)C1CCN(c2ncccc2CNC(=O)c2cccc3ccsc23)CC1 [Compound 2] | selectively reduced neuronal cell death caused by NSP5 | did not cause any cell death | did not protect | did not protect | prevented NSP5-induced neuronal death in a dose-dependent manner | did not protect | – |
| NC(=O)C1CCN(c2ncccc2CNC(=O)c2cc(F)cc(C(F)(F)F)c2)CC1 [Compound 35] | – | – | – | – | – | – | greatest activity |
